Reference: patent publication US8236510B2, “Protein showing enhanced expression in cancer cells” (Agensys, Inc., priority 1999, dated 2012)
Entries after “also recorded” stand apart in the source; their conditions may differ. Ends that are not written are not given here.

Key:
[1] = test system: ERK phosphorylation in PC3-101P3A11 cells; test: ERK phosphorylation in PC3-101P3A11 and PC3-neo cells (anti-Phospho-ERK Western blot); type: cell-based, human; settings: for inhibition of ERK phosphorylation and activation: PC3-101P3A11 and 3T3-101P3A11 cells, FBS
Description: Using Western blotting and other techniques, the ability of 101P3A11 to regulate these pathways is confirmed. Cells expressing or lacking 101P3A11 are either left untreated or stimulated with cytokines, androgen and anti-integrin antibodies. Cell lysates were analyzed using anti-phospho-specific antibodies (Cell Signaling, Santa Cruz Biotechnology) in order to detect phosphorylation and regulation of ERK, p38, AKT, PI3K, PLC and other signaling molecules. […] In the experiment, data shown in FIG. 26, control 3T3-neo and 3T3-101P3A11 cells were either treated with 0.5 or 10% FBS and whole cell lysates were analyzed by anti-phosphotyrosine Western blotting.
In this experiment, control PC3-neo cells and PC3-101P3A11 cells were left untreated (0.1% FBS) or were stimulated with 10% FBS, lipophosphatidic acid (LPA), gastrin releasing peptide (GRP), leukotriene (LKB4) or platelet activating factor (PAF). The cells were lysed and analyzed by Western blotting using anti-Phospho-ERK (FIG. 27A) or anti-ERK (FIG. 27B) mAb. […] In order to delineate the signaling pathway by which 101P3A11 mediates ERK phosphorylation in cancer cells, it was confirmed which of the two pathway inhibitors: MEK inhibitor PD98059 or the p38 inhibitor SB203580 regulate 101P3A11 mediated ERK phosphorylation (FIG. 28). […] Cells were lysed and analyzed by Western blotting using anti-Phospho-ERK or anti-ERK mAb. Treatment with 10% FBS or with GRP induced the phosphorylation of ERK in PC3-101P3A11 but not in control PC3-neo cells. 101P3A11-mediated ERK phosphorylation was inhibited by the MEK-1 inhibitor PD98059 but not the p38 inhibitor SB203580 or genistein.
Results in FIGS. 26-28 indicate that 101P3A11 regulates the activity of kinases, including ERK, and phosphatases. In order to confirm the association of 101P3A11 with phosphatase activity, the effect of the protein phosphatase inhibitor sodium orthovanadate on 101P3A11 mediated ERK phosphorylation was determined (FIG. 29). PC3-neo and PC3-101P3A11 cells were grown in media alone or in the presence of sodium orthovanadate (Na3VO4), and were stimulated with 0.1% or 10% FBS. Cells were lysed and analyzed by Western blotting using anti-Phospho-ERK or anti-ERK mAb. […] Results in FIG. 29 confirm the contribution of protein phosphatases to 101P3A11 mediated signaling.
In order to determine whether 101P3A11 signaling results in the activation of EGFR, we compared the effect of the EGFR inhibitor, AG1517, on EGFR- and 101P3A11-mediated ERK phosphorylation (FIG. 30). In FIG. 30, PC3-neo and PC3-101P3A11 cells were grown in media alone (0.1% FBS) or in the presence of AG1517. The cells were stimulated with 0.1% or 10% FBS, GRP or EGF, lysed and analyzed by Western blotting using anti-Phospho-ERK or anti-ERK mAb. Treatment with 10% FBS, GRP and EGF induced ERK phosphorylation in PC3-101P3A11 cells. […] Data in FIG. 30 indicate that some cross talk occurred between 101P3A11 and EGFR signaling pathways.
(§1) Since adenylate cyclase activity modulates intracellular levels of cAMP and induce downstream signaling events such as activation of protein kinase A, calcium and ERK MAPK signaling (Pierce K. L., et al, Oncogene. 2001, 20: 1532), we determined that PTX, an inhibitor of adenylate cyclase signaling, prevents 101P3A11-mediated ERK phosphorylation along with inhibiting cAMP accumulation (FIG. 33 and FIG. 34). PC3-neo and PC3-101P3A11 cells were grown overnight in 0.1% FBS in media alone or in the presence of pertussis toxin (PTX). Cells were stimulated with 0.1% or 10% FBS (FIG. 33) or 10% FBS, EGF or GRP (FIG. 34). Cells were lysed and analyzed by Western blotting using anti-Phospho-ERK mAb. Expression of 101P3A11 mediated ERK phosphorylation by 10% FBS in PC3 cells, which was inhibited by PTX (FIG. 33 and FIG. 34).
GPCR transmit their signal by activating trimeric G proteins. […]

PC3-101P3A11 cells = test: Proliferation of PC3-101P3A11 and PC3-neo cells; type: cell-based, human; settings: PC3-101P3A11 cells grown in 5% FBS
Description: as §1
GPCR transmit their signal by activating trimeric G proteins. Once GPCRs are activated, the associated Ga subunit binds GTP, dissociates from the receptor and participates in downstream signaling events (Schild, D., and Restrepo, D. Physiol Rev. 1998, 78:429-66). In order to determine that inhibition of Ga subunits has an effect on 101P3A11 mediated cell growth, the effect of two Ga inhibitors on the proliferation of 3T3-101P3A11 cells was investigated. Control 3T3 and 3T3-101P3A11 cells were grown in the presence or absence of suramin or its derivative NF 449 (Sigma). Cells were analyzed for proliferation 72 hours later (FIG. 35). The experiment was performed in triplicate. […] This response was 101P3A11 specific as suramin and NF449 had no effect on the proliferation of control 3T3 cells. Similarly, inhibition of G protein activation by suramin and NF449 in PC3 cells inhibits the proliferation of PC3-101P3A11 cells grown in 5% FBS (Figure M4). […] This ERK phosohorylation and activation was inhibited by suramin and NF449 in PC3-101P3A11 and 3T3-101P3A11 cells. ERK phosphorylation was inhibited in a dose dependent manner in PC3-101P3A11 cells treated with suramin. […]

3T3-101P3A11 cells = test: Proliferation of 3T3 and 3T3-101P3A11 cells (Alamar blue); type: cell-based; settings: for effect on proliferation: control 3T3 cells
3T3-101P3A11 tumors = test: Subcutaneous growth of 3T3-101P3A11 tumors in SCID mice; type: in vivo
Description: (2) Regulated expression under control of an inducible vector system, such as ecdysone, tet, etc., can be used provided such promoters are compatible with the host cell systems. […] FIG. 21 compares subcutaneous growth of control 3T3-neo and 3T3-101P3A11 cells. One million cells stably expressing neo or 101P3A11 were injected subcutaneously in SCID mice along with matrigel. Tumor volume was evaluated by caliper measurements. […] Additionally, SCID mice were implanted with the same 3T3-101P3A11 cells orthotopically in the prostate to determine if 101P3A11 has an effect on local growth in the prostate or on the ability of the cells to metastasize, specifically to lungs or lymph nodes. […] In an analogous manner, cells can be implanted orthotopically in the bladder, colon or kidney. (Saffran, D., et al., PNAS 10:1073-1078; Fu, X., et al., Int. J. Cancer, 1991, 49: p. 938-939; Chang, S., et al., Anticancer Res., 1997, 17: p. 3239-3242; Peralta, E. A., et al., J. Urol., 1999, 162: p. 1806-1811). The tumor enhancing effect of 101P3A11 was also observed when 101P3A11 is expressed in prostate cancer cells such as PC3 and introduced into the prostate of SCID mice (Figure M11). A 2.5 fold increase in tumor weight is observed in tumors expressing 101P3A11 relative to control cells.
Furthermore, these assays is useful to confirm the anti-101P3A11 inhibitory effects of candidate therapeutic compositions, such as for example, 101P3A11 antibodies or intrabodies, and 101P3A11 antisense molecules or ribozymes, or 101P3A11 directed small molecules. In FIG. 22, we depict the effect of a small molecule, pertussis toxin (PTX) on tumor formation by 3T3-101P3A11 cells. In this experiment, SCID mice were injected with 3T3-101P3A11 alone or in conjunction with PTX. Each mouse was given 5 doses of PTX at 3-4 days interval. Tumor volume was evaluated by caliper measurements. […] Similarly, treatment with the G-protein inhibitor suramin inhibits the growth of 3T3-101P3A11 tumors (Figure M13).

LAPC-9 cells = test: Androgen regulation in LAPC-9 cells (Northern blot); type: cell-based; settings: charcoal-stripped medium
Description: In order to assay for androgen regulation of 101P3A11 expression, LAPC-9 cells were grown in charcoal-stripped medium and stimulated with the synthetic androgen mibolerone, for either 14 or 24 hours (FIG. 15A, FIG. 15B, and FIG. 15C). Northern blots with 10 μg of total RNA/lane were probed with the 101P3A11 sequences (FIG. 15A). A picture of the ethidium-bromide staining of the RNA gel is also presented (FIG. 15C). […] The experimental samples were confirmed by testing for the expression of the androgen-regulated prostate cancer gene PSA (FIG. 15B).

[2] = 101P3A11 expressing 3T3 cells, Alamar blue after 72 hours

Compound: CCCCC/C=C\C[C@@H](O)/C=C/C=C/C=C\[C@@H](O)CCCC(=O)O [LKB4, leukotriene]
- ERK phosphorylation by GPCR ligands ([1]; PC3-101P3A11 cells): more modest level of ERK phosphorylation

Compound: O=C(Nc1cc(C(=O)Nc2ccc(S(=O)(=O)O)cc2S(=O)(=O)O)cc(C(=O)Nc2ccc(S(=O)(=O)O)cc2S(=O)(=O)O)c1)Nc1cc(C(=O)Nc2ccc(S(=O)(=O)O)cc2S(=O)(=O)O)cc(C(=O)Nc2ccc(S(=O)(=O)O)cc2S(=O)(=O)O)c1 [NF449]
- inhibition of proliferation (PC3-101P3A11 cells): inhibits
- inhibition of ERK phosphorylation and activation [1]: inhibited
- inhibition of proliferation (3T3-101P3A11 cells; 3T3-101P3A11 cells, 72 hours): 80%
- inhibition of proliferation (3T3-101P3A11 cells; [2]): inhibited
- effect on proliferation (3T3-101P3A11 cells; 72 hours): no effect

Compound: Cc1ccc(C(=O)Nc2ccc(S(=O)(=O)O)c3cc(S(=O)(=O)O)cc(S(=O)(=O)O)c23)cc1NC(=O)c1cccc(NC(=O)Nc2cccc(C(=O)Nc3cc(C(=O)Nc4ccc(S(=O)(=O)O)c5cc(S(=O)(=O)O)cc(S(=O)(=O)O)c45)ccc3C)c2)c1 [suramin]
- inhibition of growth of 3T3-101P3A11 tumors (3T3-101P3A11 tumors): inhibits
- inhibition of proliferation (PC3-101P3A11 cells): inhibits
- inhibition of ERK phosphorylation and activation [1]: inhibited
- inhibition of proliferation (3T3-101P3A11 cells; 3T3-101P3A11 cells, 72 hours): 60%
- inhibition of proliferation (3T3-101P3A11 cells; [2]): inhibited
- effect on proliferation (3T3-101P3A11 cells; 72 hours): no effect

Compound: COc1cc2ncnc(Nc3cccc(Br)c3)c2cc1OC [AG1517]
- inhibition of 101P3A11 mediated ERK phosphorylation ([1]; PC3-101P3A11 cells treated with 10% FBS): partially inhibits
- inhibition of EGF-mediated ERK phosphorylation ([1]; control and 101P3A11-expressing PC3 cells, EGF): completely inhibited; also recorded: inhibits

Compound: C[C@@H]1CC2=CC(=O)CC[C@@H]2[C@H]2CC[C@@]3(C)[C@@H](CC[C@]3(C)O)[C@@H]21 [mibolerone]
- expression of PSA (LAPC-9 cells; 14 and 24 hours): induced
- expression of 101P3A11 (LAPC-9 cells; 14 or 24 hours): not regulated

Compound: [Na+].[Na+].[Na+].[O]=[V]([O-])([O-])[O-] [Na3VO4, sodium orthovanadate]
- increase in ERK phosphorylation ([1]; PC3-101P3A11 cells): 4.5 fold
- increase in ERK phosphorylation ([1]; PC3-neo cells): two-fold increase

Compound: lipophosphatidic acid [LPA]
- ERK phosphorylation by GPCR ligands ([1]; PC3-101P3A11 cells): significant ERK phosphorylation

Compound: platelet activating factor [PAF]
- ERK phosphorylation by GPCR ligands ([1]; PC3-101P3A11 cells): significant ERK phosphorylation

Compound: gastrin releasing peptide (VPLPAGGGTVLTKMYPRGNHWAVGHLM; ends and bridges not checked; UniProt P07492 24-50, looked up) [GRP, GPCR ligand]
- ERK phosphorylation by GPCR ligands ([1]; PC3-101P3A11 cells): significant ERK phosphorylation

Compound: COc1cccc(-c2cc(=O)c3ccccc3o2)c1N [PD98059]
- inhibition of 101P3A11-mediated ERK phosphorylation ([1]; PC3-101P3A11 cells stimulated with FBS or GRP): inhibited
